# Data published in patent US9701709B2 (REATA PHARMACEUTICALS, INC., priority 2012, dated 2017).
# Where two headings read alike, the source gives them in different places.
# Key:
# [1] = tested on: phosphorylation of IκBα in HeLa cells; experiment: TNF-α-induced phosphorylation of IκBα in HeLa (Western); type: cell-based, human; conditions: 6 h pretreatment, TNF-α 20 ng/mL 5 min
# Protocol: Total and phosphorylated levels of IκBα were evaluated by Western blot. Primary IκBα antibodies were from Santa-Cruz (sc-371), pIκBα antibody was from Cell Signaling (9246), actin antibody was from Millipore (MAB 1501). Peroxidase-conjugated affini-pure Goat anti-Rabbit (IgG) and peroxidase-conjugated affini-pure Goat anti-Mouse IgG secondary antibodies were purchased from Jackson ImmunoResearch. Protein blots were developed using ECL, and exposed to X-ray film.
# [2] = Plasma protein binding (ultracentrifugation), rat
# [3] = tested on: TNF-α-induced NF-κB activation in A549/NF-κB-Luc cells; experiment: TNF-α-induced NF-κB luciferase reporter in A549/NF-κB-Luc; type: cell-based; conditions: Homo sapiens
# Source text: (b) TNF-α-induced activation of an NF-κB luciferase reporter in the human A549 cell line.
# NF-κB is a transcription factor that plays a central role in the regulation of many immune and inflammatory responses. […] The NIH3T3/NF-κB-luc cell line maintains a chromosomal integration of a Firefly luciferase reporter construct regulated by eight copies of the NF-κB response element. The effects of these compounds can be quantified by measuring the value of the NF-κB IC50.
# [4] = tested on: human NQO1 ARE (Nrf2) in HuH-7 human hepatoma cells; experiment: NQO1-ARE luciferase reporter in HuH-7; type: cell-based; conditions: 15.6 nM, 18 h
# Source text: The first luciferase reporter tested was under the control of a single ARE derived from the promoter of the human NQO1 gene, which allows for quantitative assessment of the endogenous activity of the Nrf2 transcription factor in cultured mammalian cells. […] The NQO1-ARE-luciferase reporter plasmid was constructed by inserting the human NQO1-ARE ([NT] ID NO: 31) into the pLuc-MCS vector using HindIII/XhoI cloning sites (GenScript Corp., Piscataway, N.J.). […] Firefly and Renilla luciferase activity was assayed by Dual-Glo Luciferase Assay (cat # E2920, Promega), and the luminescence signal was measured on an L-Max II luminometer (Molecular Devices). Firefly luciferase activity was normalized to the Renilla activity, and fold induction over a vehicle control (DMSO) of normalized Firefly activity was calculated. […] Values represent the average of three independent experiments.
# [5] = Plasma protein binding (ultracentrifugation), minipig
# [6] = Ocular absorption and distribution in rabbits; type: in vivo, rabbit
# Protocol: Using rabbits, the ocular absorption and systemic pharmacokinetic behavior of RTA 408 was evaluated. RTA 408 was administered topically to the eye once per day for five days.
# [7] = Plasma protein binding (ultracentrifugation), mouse
# [8] = molecular target: CYP2D6 (Homo sapiens, UniProt P10635); experiment: CYP450 inhibition in pooled human liver microsomes, CYP2D6; type: in vitro ADME; conditions: highest concentration tested (3 μM)
# Chain of CYP2D6 (P10635 whole entry): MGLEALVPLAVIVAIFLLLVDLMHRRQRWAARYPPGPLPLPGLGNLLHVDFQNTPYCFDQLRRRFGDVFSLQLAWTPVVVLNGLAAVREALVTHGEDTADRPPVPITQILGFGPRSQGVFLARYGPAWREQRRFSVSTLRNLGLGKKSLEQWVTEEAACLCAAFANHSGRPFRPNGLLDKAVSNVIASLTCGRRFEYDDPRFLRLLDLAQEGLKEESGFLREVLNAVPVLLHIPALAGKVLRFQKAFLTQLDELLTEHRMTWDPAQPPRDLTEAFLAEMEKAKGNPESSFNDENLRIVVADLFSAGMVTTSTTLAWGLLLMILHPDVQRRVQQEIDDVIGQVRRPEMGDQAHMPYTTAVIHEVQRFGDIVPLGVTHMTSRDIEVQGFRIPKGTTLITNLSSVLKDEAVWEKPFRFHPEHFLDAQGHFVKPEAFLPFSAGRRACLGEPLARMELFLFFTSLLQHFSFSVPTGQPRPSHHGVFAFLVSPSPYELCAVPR
# Source text: (§1) In addition, there was little or no evidence of metabolism-dependent inhibition of any of the enzymes tested.
# [9] = tested on: cigarette smoke-induced COPD; experiment: Cigarette smoke-induced COPD in mice; type: in vivo, mouse
# Protocol: (a) KC; (b) IL-6; (c) TNF-α; (d) IFN-γ; (e) RANTES. […] An AIM analog (63355) was tested in the same study for comparison. Asterisks indicate a statistically significant difference form the CS control group.
# At the end of the study, lung tissue and BALF were collected for analysis of inflammatory infiltrates and cytokines. […] An AIM analog (63355) was tested in the same study for comparison. 63355 is a compound of the formula: […]
# Txnrd, Gst, and […] enzyme activities were measured using commercially available kits from Cayman Chemical (Ann Arbor, Mich.).
# [10] = Plasma protein binding (ultracentrifugation), human
# [11] = tested on: bleomycin-induced pulmonary fibrosis
# [12] = Oral pharmacokinetics in rats; type: in vivo, rat; conditions: oral suspension, 10 to 100 mg/kg
# Protocol: (§2) Measurements were performed on TQD and QToF mass spectrometers (Waters).
# (§3) Following oral administration of a suspension formulation at doses of 10 to 100 mg/kg, maximal concentrations were observed within 1 to 2 h in mice, and within 1 to 24 h in rats and monkeys.
# [13] = tested on: NADPH levels in HCT-116 cells; experiment: WST-1 absorbance as marker of NADPH in HCT-116; type: cell-based; conditions: HCT-116, 24 h
# Source text: WST-1 absorbance is commonly used to assess cell viability by measuring glycolytic production of NAD(P)H by viable cells. Therefore, in situations where NADPH production increases in the absence of any effect on cell viability, WST-1 absorbance also increases (Berridge et al. Biochemica 4:14-19, 1996, which is incorporated herein by reference).
# [14] = Oral pharmacokinetics in monkeys; type: in vivo, monkey; conditions: oral suspension, 10 to 100 mg/kg
# Protocol: as §2, §3
# [15] = molecular target: CYP2C9 (Homo sapiens, UniProt P11712); experiment: CYP450 inhibition in pooled human liver microsomes, CYP2C9; type: in vitro ADME; conditions: highest concentration tested (3 μM)
# Chain of CYP2C9 (P11712 whole entry): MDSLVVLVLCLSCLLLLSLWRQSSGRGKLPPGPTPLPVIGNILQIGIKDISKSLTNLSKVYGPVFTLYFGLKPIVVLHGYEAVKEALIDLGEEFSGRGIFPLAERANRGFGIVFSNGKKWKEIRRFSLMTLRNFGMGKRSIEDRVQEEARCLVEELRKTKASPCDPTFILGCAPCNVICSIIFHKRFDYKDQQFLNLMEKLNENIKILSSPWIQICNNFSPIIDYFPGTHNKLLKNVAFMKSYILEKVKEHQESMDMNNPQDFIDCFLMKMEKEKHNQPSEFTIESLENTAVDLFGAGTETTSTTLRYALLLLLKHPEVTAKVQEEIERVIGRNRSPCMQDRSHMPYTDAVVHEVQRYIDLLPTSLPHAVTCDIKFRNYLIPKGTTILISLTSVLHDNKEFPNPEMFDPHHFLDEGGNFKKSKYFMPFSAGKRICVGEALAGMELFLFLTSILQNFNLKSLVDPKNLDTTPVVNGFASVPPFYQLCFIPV
# Source text: as §1
# [16] = tested on: LPS-induced NO (plasma NOx, Griess Reaction); experiment: Suppression of NO in vivo after LPS in CD-1 mice; design: species or system mouse; conditions: LPS 5 mg/kg 24 h later
# Protocol: FIG. 51—Dose-dependent suppression of NO in vivo by 63415. CD-1 mice (n=6) were dosed with DMSO or […] by oral gavage. LPS (5 mg/kg) was administered 24 h later. Twenty-four hours after LPS administration, whole blood was collected for NO assay. NO inhibition was determined by Griess Reaction from reduced, de-proteinated plasma.
# [17] = 3 and 10 mg/kg daily for 28 days
structure (smiles),measurement,setting,value
"CC1(C)CC[C@]2(NC(=O)C(C)(F)F)CC[C@]3(C)[C@H](C(=O)C=C4[C@@]5(C)C=C(C#N)C(=O)C(C)(C)[C@@H]5CC[C@]43C)[C@@H]2C1 [RTA 408, N-((4aS,6aR,6bS,8aR,12aS,14aR,14bS)-11-cyano-2,2,6a,6b,9,9,12a-heptamethyl-10,14-dioxo-1,2,3,4,4a,5,6,6a,6b,7,8,8a,9,10,12a,14,14a,14b-octadecahydropicen-4a-yl)-2,2-difluoropropanamide]",TNF-α-induced phosphorylation of IκBα,[1],inhibited TNF-α-induced phosphorylation of IκBα in a dose-dependent manner
same,fraction unbound,[2],0.05
same,IC50,"[3]; not viability normalized, read-out: NF-κB IC50, human A549 cell line (further experimentation)",1.7 µM
same,IC50,"[3]; read-out: NF-κB IC50, human A549 cell line, viability normalized",1.7 µM
same,"Induction of luciferase activity, NQO1-ARE reporter",[4],~2 fold
same,fraction unbound,[5],< 0.01
same,Ocular tissue distribution,[6]; ocular topical administration,"highest concentrations of the compound were found in the cornea, retina, or iris"
same,Plasma concentration after ocular administration,[6]; topical to the eye once per day for five days,lower plasma concentration of RTA 408 relative to when RTA 408 is administered orally
same,fraction unbound,[7],0.07
same,inhibition at 3 µM,[8],< 50%
same,Lung Txnrd enzyme activity,[9]; 30 mg/kg,Txnrd enzyme activity was also induced
same,Lung NQO1 enzyme activity (decreased by cigarette smoke),"[9]; 3, 10, or 30 mg/kg",rescued this loss
same,Pro-inflammatory cytokines incl. KC and TNF-α,[9]; doses as low as 3 mg/kg daily for two weeks,significant suppression of pro-inflammatory cytokines
same,fraction unbound,[10],0.03
same,Animals with Mild trichrome staining intensity,[11]; 3 mg/kg,0
same,Animals with Minimal trichrome staining intensity,[11]; 3 mg/kg,0
same,Animals with Moderate trichrome staining intensity,[11]; 3 mg/kg,7
same,Animals with Mild trichrome staining intensity,[11]; 10 mg/kg,4
same,Animals with Minimal trichrome staining intensity,[11]; 10 mg/kg,3
same,Animals with Moderate trichrome staining intensity,[11]; 10 mg/kg,1
same,Tolerability of 30-mg/kg dose (stopped on day 14),[11]; 30 mg/kg daily oral gavage,excessive dehydration and diarrhea
same,PMN cell infiltration into the lungs,[11]; [17],significantly suppressed polymorphonuclear (PMN) cell infiltration into the lungs
same,Reduction in hydroxyproline deposition,[11]; [17],10%-20%
same,Lung Nrf2 target enzyme activity,[11]; rats exposed to bleomycin,"significantly and dose-dependently increased NQO1, Txnrd, Gsr, and Gst enzyme activity"
same,Time of maximal concentrations,[12],1 to 24 h
same,WST-1 absorbance (marker of NADPH),[13],increased WST-1 absorbance in a dose-dependent manner
same,Time of maximal concentrations,[14],1 to 24 h
same,inhibition at 3 µM,[15],< 50%
same,NOx Levels (% vs LPS Controls),[16]; 13 mg/kg oral gavage,30%
same,NOx Levels (% vs LPS Controls),[16]; 25 mg/kg oral gavage,18%
same,NOx Levels (% vs LPS Controls),[16]; 50 mg/kg oral gavage,16%
